# Experimental data: patent publication US20090036821A1 (priority 2005, published 2009)
# Counter-ions that a name gives are not always drawn. Like-named read-outs stand apart in the source and are kept apart here.
# How the values were obtained:
# [1] = Conductivity of donor solution; type: physicochemical
# [2] = for Iontophoretic flux of nicotine versus passive delivery of nicotine base: 500 mM citrate buffer with 50 mM NaCl, current terminated after 4 hours, FIG. 3; for Flux of nicotine after termination of current: current terminated at 4 hrs, 50 mM HEPES, FIG. 6; for Lagtime / Flux: iontophoresis (ITP), donor pH 5.5, 50 mM HEPES; for Flux: steady state when current is present, 0.5 mA/sq.cm; for Flux of nicotine, iontophoresis of salt versus passive permeation of nicotine base / Lagtime during iontophoresis versus passive permeation of nicotine base: iontophoresis at pH 5.5 versus passive base pH 8, FIG. 8
# Method: The following methodology was employed in the examples described herein: Dermatomed human skin stored at −80° C. was thawed just prior to use. Each permeation experiment consisted of four replicates. The skin for each replicate was obtained from a different donor so that the variation was randomized. Skin was mounted on Valia-Chien (horizontal) diffusion cells for these in vitro permeation studies, with stratum corneum side facing the donor side. The receptor compartment was filled with pH 7.4 phosphate buffer (50 mM). […] Prior to use, both donor and receptor solutions were degassed by helium sparging. The temperature of the water bath was set to 32° C. Both donor and receptor compartments were continuously stirred. For iontophoresis, silver wire was used as the anode in the donor compartment and silver/silver chloride as cathode in the receptor compartment. A current of 0.5 mA/sq.cm was applied for 4 hours. Samples taken periodically from the receptor compartment were analyzed by HPLC assay. An Xterra RP18 column was used and the detection wavelength was 261 nm. The mobile phase was 85:15 buffer:acetonitrile, pumped at 1 mL/min and retention time was about 3 minutes.
# Iontophoretic current was terminated after 4 hours.
# Iontophoretic delivery of nicotinium dihydrochloride salt was also studied in 50 mM HEPES buffer, adjusted to pH 5.5 with NaOH.
# The flux is calculated at steady state when current is present for the iontophoresis experiments.
# [3] = donor solution for iontophoresis, donor pH 5.5, 50 mM HEPES
Compound,"Conductivity [1, 3] [mS/cm]",Lagtime [2] [min],Flux [2] [mg/cm^2-hr],also measured
"CN1CCCC1c1cccnc1 (centres unmarked) [Base, nicotine]",–,–,–,"Passive transport of nicotine, pH 8 versus pH 5.5 (non-ionized form at pH 8 compared to monocationic form at pH 5.5): higher at pH 8; Lagtime (passive permeation, donor pH 8): 87 min; Flux (passive permeation, donor pH 8, 1% nicotine, human skin): 0.1053 mg/cm^2-hr; Conductivity ([1]; donor solution for passive permeation, donor pH 8): 4.73 mS/cm; Nicotine permeation, iontophoresis versus passive delivery ([2]; both conditions evaluated (pH 5.5 and pH 8 buffers), FIGS. 1 and 2): Iontophoresis enhanced nicotine permeation compared to passive nicotine delivery"
"CN1CCCC1c1cccnc1.O=C(O)C(O)C(O)C(=O)O (centres unmarked) [Bitartrate, nicotine bitartrate]",16.3,10,0.2073,"Conductivity of donor solution ([1]; in 50 mM HEPES buffer, pH 5.5): 16300 μmhos/cm; Conductivity of donor solution ([1]; in 500 mM citrate buffer): 66400 μmhos/cm; Iontophoretic flux of nicotine versus passive delivery of nicotine base [2]: less than the flux from the passive delivery of nicotine base at pH 8; Flux of nicotine after termination of current [2]: decreased sharply; Flux of nicotine, 50 mM HEPES buffer versus 500 mM citrate buffer ([2]; iontophoresis, 50 mM HEPES buffer pH 5.5): higher than the nicotine flux from a 500 mM citrate buffer"
"CN1CCCC1c1cccnc1.O=C(O)CC(O)(CC(=O)O)C(=O)O [Citrate, nicotine citrate]",13.3,9,0.332,"Flux of nicotine, iontophoresis of salt versus passive permeation of nicotine base [2]: increased; Lagtime during iontophoresis versus passive permeation of nicotine base [2]: reduced"
Br.Br.CN1CCCC1c1cccnc1 (centres unmarked) [HBr],25.9,63,0.2771,–
"CN1CCC[C@H]1c1cccnc1 [HCl, nicotinium dihydrochloride]",15.4,22,0.2236,"Conductivity of donor solution ([1]; in 50 mM HEPES buffer, pH 5.5): 15400 μmhos/cm; Flux of nicotine after termination of current [2]: decreased sharply"
"CN1CCCC1c1cccnc1.O=C(O)/C=C\C(=O)O (centres unmarked) [Maleate, nicotine maleate]",9.31,4,0.2867,"Flux of nicotine, iontophoresis of salt versus passive permeation of nicotine base [2]: increased; Lagtime during iontophoresis versus passive permeation of nicotine base [2]: reduced"
CN1CCCC1c1cccnc1.O=S(=O)(O)O.O=S(=O)(O)O (centres unmarked) [SO4],20,46,0.2554,–
nicotine hemisulfate,–,–,–,Iontophoretic flux of nicotine versus passive delivery of nicotine base [2]: less than the flux from the passive delivery of nicotine base at pH 8
